Reference: patent US6638974B1, “Ascorbyl esters for the treatment of cancer” (University of South Florida, priority 1999, dated 2003)

What was measured:
PANC-1 cells [1] = experiment: Soft agar colony growth, PANC-1; format: cell-based, human; details: PANC-1, 150 μM Asc-S
Protocol: Soft agar experiments: To test the hypothesis that treatment of PANC-1 cells in culture with Asc-S reverses their transformed phenotype, the growth of PANC-1 was assessed in soft agar. PANC-1 cells were seeded at a density of 3×10^3/35 mm plate in 10% serum on a top layer of 0.3% agar and a bottom layer of 1% agar with and without the addition of 150 μM of Asc-S for 24 hours. The Asc-S was added to the top layer every day. Colonies greater than 125 microns in diameter (or ten cells) were counted at weekly intervals for 14-21 days. The clonogenicity was determined in three independent experiments comprising six replicates.

T98G cells = experiment: Cell multiplication cycle, T98G; format: cell-based, human; details: 50-175 μM Asc-S
Source text: Human glioma cell proliferation and tumorigrenicity are under autocrine control of the insulin like growth factor 1 (IGF-1) and its receptor (IGF-1R). Although it has been known for quite some time that ascorbic acid and its derivatives have anti-proliferative effects on various tumor cells, the precise mechanism of action is unknown. This study presents data on Ascorbyl Stearate (Asc-S) […] glioma (T98G) cell proliferation and transformation. Asc-S inhibited 10% fetal bovine serum (FBS) and human recombinant IGR-1 ([…]) dependent T98G cell proliferation in a dose dependent manner. […] The inhibition of IGF-1 Rs was also time and dose dependent.

[2] = test system: OVCAR-3 and PANC-1 s.c. tumors; experiment: s.c. OVCAR-3 and PANC-1 tumors in BALB/c nude mice; format: in vivo, mouse; details: 100 mg/Kg s.c. daily for two weeks
Protocol: The experimental approach is to test effect of Ascorbyl stearate (Asc-S) on the tumorigenicity of ovarian and pancreatic tumor cells. Procedures involve culturing OVCOR-3 (ovarian cancer cells) and PANC-1 (pancreatic cancer cells). When confluent, cells were trypsinized, washed and resuspended in sterile phosphate buffered solution ([…]) in a volume of 0.1 ml and injected s.c. above the hind leg of the mice. Two groups each for OVCOR-3 and PANC-1 tumor cells were established.
Asc-S is lipophilic compound. Asc-S was dissolved in a small volume of ethyl alcohol and then reconstituted in sterile normal saline. The final concentration of ethyl alcohol was ˜5%. At that concentration ethyl alcohol would not have any deleterious effect. […] The controls received […] of a mixture of 0.5:10 ethyl alcohol and sterile normal saline.
Group 1 is made up of OVCAR-3 cells plus Vehicle. A mixture of 0.5:10 of ethyl alcohol and normal saline was used as the vehicle. Group 2 is made up of OVCAR-3 cells plus Asc-S at a concentration of 100 mg/Kg was administered subcutaneously at the vicinity of the s.c. tumor one week prior to treatment with Asc-S. The Asc-S was distributed in a small volume of ethyl alcohol and then reconstituted into normal saline. […]
For the preliminary studies, six mice per group were used. […] The s.c. tumors were isolated, tumor sizes were measured and processed for pathological evaluation. […]

PANC-1 cells [3] = experiment: Apoptosis by in situ TUNEL assay, PANC-1; format: cell-based, human; details: 150 μM, 24 hours
Protocol: Detection of Apoptosis By In Situ Hybridization Using TUNEL Reaction: Apoptosis was determined by TdT-mediated dUTP nick end labeling (TUNEL) using an in situ cell death detection kit (Boehringer Mannheim, Indianapolis, Ind.). Asc-S treated and untreated PANC-1 cells were trypsinized and cytospin preparations were obtained. Cells were fixed with paraformaldehyde (4% in PBS, pH 7.4). After a rinse in PBS, the slides were incubated in permeabilization solution. Slides were cross-reacted with TUNEL reaction mixture for 60 minutes at 37° C. in a humidified chamber. Slides were thoroughly rinsed and reacted with alkaline phosphatase substrate solution for five to ten minutes (Vector Laboratories, Burlington, Mass.). The slides were analyzed under light microscope. These experiments were performed in duplicate.

c-Src = c-Src expression by Western immunoblot, T98G; format: cell-based, human; details: 100 μM, 24 h
Protocol: The Src oncogene product was the first to be identified as tyrosine kinase. Today the “Src-family” of non-receptor tyrosine kinases is known to be represented in every cell type and signaling system. […] This observation is further corroborated with the data on the dose and time dependent inhibition of IGF1-R described herein.
The T98G cells are exponentially grown in MEM with 10 nM human recombinant IGF-1 (Bachem California, Torrance, Calif.) or MEM with 10% FBS. The cells were disrupted in cold lysis buffer (10 μM terra sodium pyrophosphate, 20 mM HEPES, 1% Triton X-100, 100 mM NaCl, 2 ug/ml aprotinin, 2 μg/ml leupeptin and 100 μg/ml of PMSF). The crude lysates were centrifuged and protein concentration was determined by using Pierce BCA Protein Assay kit. […] Rabbit anti-human polyclonal primary antibodies to c-Src (pp60^Src (aa403-421) (Upstate Biotechnology, Lake Placid, N.Y.) were incubated for one hour at room temperature in TBST and 1% nonfat milk. The blots were then washed and incubated with anti-rabbit horseradish peroxidase conjugated secondary antibody (Oncogene Science, Inc. Uniondale, N.Y.). Antigen bound to nitrocellulose membrane was detected with the ECL system (Amersham Corp., Arlington Heights, Ill.). FIG. 9A was a positive control for c-Src from A431 cell lysate, FIGS. 9B and C were untreated and 100 μM […] treated T98G cell lysates respectively.

CCCCCCCCCCCCCCCCCC(=O)OC[C@H](O)[C@H]1OC(=O)C(O)=C1O [Asc-S, Ascorbyl stearate]
soft agar colonies, 1st week (PANC-1 cells [1]; 1st week): 0 colonies
soft agar colonies, 2nd week (PANC-1 cells [1]; 2nd week): 15 colonies
soft agar colonies, 3rd week (PANC-1 cells [1]; third week): 50 colonies
cell multiplication cycle, T98G (T98G cells): arrest of cell multiplication cycle in G1/Go phase
apoptotic cells in s.c. tumors (pathological evaluation) [2]: predominantly higher percentage of apoptotic cells
decrease in the size of the tumors compared to untreated controls [2]: 70%
apoptosis (in situ TUNEL), PANC-1 (PANC-1 cells [3]): significant increase in apoptosis
c-Src expression, T98G cells (c-Src): did not affect
